Measurements reported in patent US12134721B2, “Complexes and ligands” (The General Hospital Corporation, priority 2018, dated 2024).

Columns and labels:
Assay type in all cases: physicochemical
[1] = Fluorescence lifetimes of selected lanthanide (Tb, Eu, Dy, Sm) complexes; settings: Table 1
Description: (§1) Photophysical measurements: UV/visible and emission spectra were recorded on a Horiba Scientific Dual FL spectrophotometer. Ligands loaded with terbium were diluted into 1×PBS (pH 7.4) to a concentration of 20 uM (for absorbance) or 4 uM (for emission). For emission spectra, the data were normalized to the highest fluorescence signal. The fluorescence lifetime was determined by plotting the ln of the signal decay over time then solving for r in Equation 1:
(§2) [formula] where It is the intensity at time t, α is a normalization term (the preexponential factor) and τ is the lifetime.

[2] = Photophysical measurements of terbium complexes in 1x PBS pH 7.4; settings: for τPBS (fluorescence lifetime): 1x PBS pH 7.4; for Emission λmax: 1x PBS pH 7.4, 4 uM; for εmax / λmax, Abs: 1x PBS pH 7.4, 20 uM
Description: as §1, §2

[3] = Stability of Tb complexes (10 nM) in various buffers over 7 days; settings: buffers with 0.05% TWEEN-20
Description: The stability of NCP190-Tb (10 nM) was measured over the course of 7 days in various different buffers. All buffers contained 0.05% TWEEN-20 detergent.
The stability of NCP134-Tb (10 nM) was measured over the course of 7 days in various different buffers. All buffers contained 0.05% TWEEN-20 detergent.

[4] = Fluorescence lifetimes of selected lanthanide (Tb, Eu, Dy, Sm) complexes
[5] = Dy and Sm complexes of NCP189, Table 3

O=C1NCCN2CCNC(=O)c3cccc(c3O)C(=O)NCCN(CCNC(=O)c3cccc1c3O)CCN1CCNC(=O)c3cccc(c3O)C(=O)NCCN(CCNC(=O)c3cccc(c3O)C(=O)NCC1)CC2 [NCP 134-Tb]
Life Time [1]: 2.56 ms | τPBS (fluorescence lifetime) [2]: 2.10 ms | Emission λmax [2]: 545 nm | εmax [2]: 11,600 M^−1cm^−1 | λmax, Abs [2]: 340 nm | Stability in various buffers [3]: only significantly destabilized by EDTA, however to a greater extent relative to NCP190-Tb

O=C(O)CN1CCN2CCNC(=O)c3cccc(c3O)C(=O)NCCN(CCNC(=O)c3cccc(c3O)C1=O)CCN1CCNC(=O)c3cccc(c3O)C(=O)NCCN(CCNC(=O)c3cccc(c3O)C(=O)NCC1)CC2 [NCP 144-Tb]
Life Time [1]: 2.06 ms | τPBS (fluorescence lifetime) [2]: 2.06 ms | Emission λmax [2]: 545 nm | εmax [2]: 19,230 M^−1cm^−1 | λmax, Abs [2]: 340 nm

O=C1NCCN2CCNC(=O)c3cc(Br)cc(c3O)C(=O)NCCN(CCNC(=O)c3cc(Br)cc1c3O)CCN1CCNC(=O)c3cc(Br)cc(c3O)C(=O)NCCN(CCNC(=O)c3cc(Br)cc(c3O)C(=O)NCC1)CC2 [NCP 158-Tb]
Life Time [1]: 0.97 ms | τPBS (fluorescence lifetime) [2]: 0.97 ms | Emission λmax [2]: 545 nm | εmax [2]: 13,750 M^−1cm^−1 | λmax, Abs [2]: 355 nm

O=C(CN1CCN2CCNC(=O)c3cccc(c3O)C(=O)NCCN(CCNC(=O)c3cccc(c3O)C1=O)CCN1CCNC(=O)c3cccc(c3O)C(=O)NCCN(CCNC(=O)c3cccc(c3O)C(=O)NCC1)CC2)NCCOCCOCCCCCCCl [NCP 166-Tb]
Life Time [1]: 2.23 ms

Nc1nc(CCc2ccc(CNC(=O)CN3CCN4CCNC(=O)c5cccc(c5O)C(=O)NCCN(CCNC(=O)c5cccc(c5O)C3=O)CCN3CCNC(=O)c5cccc(c5O)C(=O)NCCN(CCNC(=O)c5cccc(c5O)C(=O)NCC3)CC4)cc2)c2[nH]cnc2n1 [NCP 169-Tb]
Life Time [1]: 1.99 ms

O=C(O)CCCCCN1CCN2CCNC(=O)c3cccc(c3O)C(=O)NCCN(CCNC(=O)c3cccc(c3O)C1=O)CCN1CCNC(=O)c3cccc(c3O)C(=O)NCCN(CCNC(=O)c3cccc(c3O)C(=O)NCC1)CC2 [NCP 189-Dy]
Life Time [4, 5]: 22.7 ms

O=C(O)CCCCCN1CCN2CCNC(=O)c3cccc(c3O)C(=O)NCCN(CCNC(=O)c3cccc(c3O)C1=O)CCN1CCNC(=O)c3cccc(c3O)C(=O)NCCN(CCNC(=O)c3cccc(c3O)C(=O)NCC1)CC2 [NCP 189-Eu]
Life Time ([4]; Eu complexes, Table 2): 598 µs

O=C(O)CCCCCN1CCN2CCNC(=O)c3cccc(c3O)C(=O)NCCN(CCNC(=O)c3cccc(c3O)C1=O)CCN1CCNC(=O)c3cccc(c3O)C(=O)NCCN(CCNC(=O)c3cccc(c3O)C(=O)NCC1)CC2 [NCP 189-Sm]
Life Time [4, 5]: 28.1 ms

O=C(O)CCCCCN1CCN2CCNC(=O)c3cccc(c3O)C(=O)NCCN(CCNC(=O)c3cccc(c3O)C1=O)CCN1CCNC(=O)c3cccc(c3O)C(=O)NCCN(CCNC(=O)c3cccc(c3O)C(=O)NCC1)CC2 [NCP 189-Tb]
Life Time [1]: 1.79 ms

O=C(CCCCCN1CCN2CCNC(=O)c3cccc(c3O)C(=O)NCCN(CCNC(=O)c3cccc(c3O)C1=O)CCN1CCNC(=O)c3cccc(c3O)C(=O)NCCN(CCNC(=O)c3cccc(c3O)C(=O)NCC1)CC2)NCCOCCOCCCCCCCl [NCP 190-Tb]
Life Time [1]: 2.46 ms | Stability in various buffers [3]: only significantly destabilized by EDTA

Nc1nc(CCc2ccc(CNC(=O)CCCCCN3CCN4CCNC(=O)c5cccc(c5O)C(=O)NCCN(CCNC(=O)c5cccc(c5O)C3=O)CCN3CCNC(=O)c5cccc(c5O)C(=O)NCCN(CCNC(=O)c5cccc(c5O)C(=O)NCC3)CC4)cc2)c2nc[nH]c2n1 [NCP 191-Tb]
Life Time [1]: 2.11 ms

O=C(O)CCCCCN1CCN2CCNC(=O)c3cccc(c3O)C(=O)NCCN(CCNC(=O)c3cccc(n3)C1=O)CCN1CCNC(=O)c3cccc(c3O)C(=O)NCCN(CCNC(=O)c3cccc(c3O)C(=O)NCC1)CC2 [NCP 227-Eu]
Life Time ([4]; Eu complexes, Table 2): 651 µs

O=C(O)CCCCCN1CCN2CCNC(=O)c3cccc(c3O)C(=O)NCCN(CCNC(=O)c3cccc(n3)C1=O)CCN1CCNC(=O)c3cccc(c3O)C(=O)NCCN(CCNC(=O)c3cccc(c3O)C(=O)NCC1)CC2 [NCP 227-Tb]
Life Time [1]: 1.20 ms

O=C(O)CCCCCN1CCN2CCNC(=O)c3cccc(c3O)C(=O)NCCN(CCNC(=O)c3cccc(c3)C1=O)CCN1CCNC(=O)c3cccc(c3O)C(=O)NCCN(CCNC(=O)c3cccc(c3O)C(=O)NCC1)CC2 [NCP 259-Eu]
Life Time ([4]; Eu complexes, Table 2): 657 µs

O=C(O)CCCCCN1CCN2CCNC(=O)c3cccc(c3O)C(=O)NCCN(CCNC(=O)c3cccc(c3)C1=O)CCN1CCNC(=O)c3cccc(c3O)C(=O)NCCN(CCNC(=O)c3cccc(c3O)C(=O)NCC1)CC2 [NCP 259-Tb]
Life Time [1]: 1.37 ms

O=C1NCCN2CCNC(=O)c3cccc(c3O)C(=O)NCCN(CCNC(=O)c3cccc1c3O)CC(=O)N1CCNC(=O)c3cccc(c3O)C(=O)NCCN(CCNC(=O)c3cccc(c3O)C(=O)NCC1)CC2 [NCP 272-Eu]
Life Time ([4]; Eu complexes, Table 2): 609 µs

O=C1NCCN2CCNC(=O)c3cccc(c3O)C(=O)NCCN(CCNC(=O)c3cccc1c3O)CC(=O)N1CCNC(=O)c3cccc(c3O)C(=O)NCCN(CCNC(=O)c3cccc(c3O)C(=O)NCC1)CC2 [NCP 272-Tb]
Life Time [1]: 1.53 ms

O=C1NCCN2CCNC(=O)c3cccc(c3O)C(=O)NCCN(CCNC(=O)c3cccc1c3O)C(=O)N1CCNC(=O)c3cccc(c3O)C(=O)NCCN(CCNC(=O)c3cccc(c3O)C(=O)NCC1)CC2 [NCP 275-Eu]
Life Time ([4]; Eu complexes, Table 2): 505 ms

O=C1NCCN2CCNC(=O)c3cccc(c3O)C(=O)NCCN(CCNC(=O)c3cccc1c3O)C(=O)N1CCNC(=O)c3cccc(c3O)C(=O)NCCN(CCNC(=O)c3cccc(c3O)C(=O)NCC1)CC2 [NCP 275-Tb]
Life Time [1]: 1.39 ms

BH(2,2)IAM-N-carboxymethyl-Halotag [NCP166]
τPBS (fluorescence lifetime) [2]: 2.23 ms | Emission λmax [2]: 545 nm | εmax [2]: 10,800 M^−1cm^−1 | λmax, Abs [2]: 340 nm
